Measurements from patent publication US20100119483A1, “PEPTIDE VIRAL ENTRY INHIBITORS” (Schering Corporation, priority 2004, published 2010).
“And” between values parts separate entries of the source, which are not always exact repeats. Identical values can stand only once.

System: HCV pseudoparticles
Assay: HCV pseudoparticle (HCVpp) entry assay in Huh7 hepatoma cells, luciferase readout
Assay type: cell-based, hepatitis C virus
Settings: for % of control at ~30 uM: percentage of hepatitis C virus cellular entry at 30 μM peptide vs uninhibited control
How it was run: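 Pseudoparticles carrying HCV E1/E2 on an HIV luciferase backbone were produced in 293T cells; peptide was pre-incubated 1 h at 37 °C with Huh7 cells, then virus added and luciferase read after 72 h. Dose-response used 10-point 3-fold titration from 100 ug/ml; envelope-less particles controlled non-specific entry.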

[1] = 0.1 nM of peptide (printed for three rows), two values per peptide and row
[2] = 0.3 nM of peptide, two values per peptide
[3] = 1 nM of peptide, two values per peptide
[4] = 3 nM of peptide, two values per peptide
[5] = 10 nM of peptide, two values per peptide
[6] = 30 nM of peptide, two values per peptide
[7] = 100 nM of peptide, two values per peptide
[8] = 300 nM of peptide, two values per peptide
[9] = 10000 nM of peptide, two values per peptide
[10] = 30000 nM of peptide, two values per peptide

Row | Substance | % of control at ~30 uM [%] | % control (HCVpp entry), lysine scanning [1] | % control (HCVpp entry), lysine scanning [2] | % control (HCVpp entry), lysine scanning [3] | % control (HCVpp entry), lysine scanning [4] | % control (HCVpp entry), lysine scanning [5] | % control (HCVpp entry), lysine scanning [6] | % control (HCVpp entry), lysine scanning [7] | % control (HCVpp entry), lysine scanning [8] | % control (HCVpp entry), lysine scanning [9] | % control (HCVpp entry), alanine scanning [1] | % control (HCVpp entry), alanine scanning [2] | % control (HCVpp entry), alanine scanning [3] | % control (HCVpp entry), alanine scanning [4] | % control (HCVpp entry), alanine scanning [5] | % control (HCVpp entry), alanine scanning [6] | % control (HCVpp entry), alanine scanning [7] | % control (HCVpp entry), alanine scanning [8] | % control (HCVpp entry), alanine scanning [9] | % control (HCVpp entry), alanine scanning [10] | further results
1 | P-I-K-W-E-Y-V-L-L-L-F-L-L [SEQ ID NO: 99] | 21 |  |  |  |  |  |  |  |  |  |  |  |  |  |  |  |  |  |  |  | % control (HCVpp entry), proline scanning [1]: 64 % control and 84 % control and 108 % control and 70 % control and 101 % control and 121 % control; % control (HCVpp entry), proline scanning [2]: 84 % control and 80 % control; % control (HCVpp entry), proline scanning [3]: 75 % control and 89 % control; % control (HCVpp entry), proline scanning [4]: 68 % control and 56 % control; % control (HCVpp entry), proline scanning [5]: 45 % control and 53 % control; % control (HCVpp entry), proline scanning [6]: 28 % control and 36 % control; % control (HCVpp entry), proline scanning [7]: 21 % control and 34 % control; % control (HCVpp entry), proline scanning [8]: 21 % control and 29 % control; % control (HCVpp entry), proline scanning [9]: 24 % control and 16 % control
2 | A-I-K-W-E-Y-K-L-L-L-F-L-L (AIKWEYKLLLFLL; HCV peptide) [SEQ ID NO: 131] |  | 97 % control and 80 % control and 94 % control and 96 % control and 113 % control | 105 % control and 81 % control | 85 % control and 68 % control | 71 % control and 85 % control | 74 % control and 66 % control | 71 % control and 68 % control | 49 % control and 62 % control | 29 % control and 42 % control | 16 % control and 14 % control |  |  |  |  |  |  |  |  |  |  | % control (HCVpp entry), lysine scanning [10]: 30 % control and 44 % control
3 | A-I-K-W-E-Y-V-A-L-L-F-L-L (AIKWEYVALLFLL; HCV peptide) [SEQ ID NO: 93, Ala-scan] | 13 |  |  |  |  |  |  |  |  |  | 91 % control and 83 % control and 80 % control and 104 % control and 134 % control and 81 % control | 86 % control and 105 % control | 85 % control and 87 % control | 78 % control and 87 % control | 71 % control and 67 % control | 58 % control and 51 % control | 47 % control and 42 % control | 32 % control and 27 % control | 41 % control and 32 % control | 32 % control | 
4 | A-A-K-W-E-Y-V-L-L-L-F-L-L (AAKWEYVLLLFLL; HCV peptide) [SEQ ID NO: 87, Ala-scan] | 14 |  |  |  |  |  |  |  |  |  | 90 % control and 108 % control and 113 % control and 93 % control and 104 % control | 84 % control and 75 % control | 110 % control and 93 % control | 92 % control and 68 % control | 45 % control and 57 % control | 42 % control and 51 % control | 19 % control and 15 % control | 16 % control and 13 % control | 15 % control and 23 % control | 11 % control and 6 % control | 
5 | A-I-K-W-E-Y-V-L-L-L-F-K-L (AIKWEYVLLLFKL; HCV peptide) [SEQ ID NO: 136] |  | 67 % control and 81 % control and 82 % control and 94 % control and 116 % control and 108 % control | 103 % control and 70 % control | 71 % control and 90 % control | 76 % control and 98 % control | 80 % control and 71 % control | 65 % control and 84 % control | 98 % control and 84 % control | 81 % control and 84 % control | 34 % control and 68 % control |  |  |  |  |  |  |  |  |  |  | 
6 | A-I-K-W-E-Y-A-L-L-L-F-L-L (AIKWEYALLLFLL; HCV peptide) [SEQ ID NO: 92, Ala-scan] | 17 |  |  |  |  |  |  |  |  |  | 73 % control and 115 % control and 82 % control and 89 % control and 99 % control and 130 % control | 85 % control and 61 % control | 90 % control and 80 % control | 68 % control and 99 % control | 82 % control and 59 % control | 42 % control and 64 % control | 32 % control and 25 % control | 21 % control and 30 % control |  |  | 
